Test [1] addresses T1, PPAR-γ (Homo sapiens, UniProt P37231).
T1 construct: expressed in transfected cells; host or cells: BE(2)C cells
T1 sequence (P37231 238-503 limits assumed): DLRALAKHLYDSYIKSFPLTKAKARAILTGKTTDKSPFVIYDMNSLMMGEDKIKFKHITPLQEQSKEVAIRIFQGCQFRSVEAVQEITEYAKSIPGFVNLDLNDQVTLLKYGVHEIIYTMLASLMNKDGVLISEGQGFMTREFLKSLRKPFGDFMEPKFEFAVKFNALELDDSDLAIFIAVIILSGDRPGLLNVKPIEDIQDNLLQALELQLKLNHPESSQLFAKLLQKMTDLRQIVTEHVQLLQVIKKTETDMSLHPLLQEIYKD
Nature of the test: PPAR-γ activation, GAL4-PPAR-γ-LBD luciferase reporter in BE(2)C cells. Format: cell-based. Particulars: 20 h treatment, up to 50 μM, FIGS. 1A, 1B. The protocol: (§1) To examine whether amodiaquine acts as a ligand of […] or PPAR-α, three types of vectors were used.
(§2) The activation of luciferase expression was measured after BE(2)C cells were transformed with a GAL4-PPAR-γ-LBD plasmid or a GAL4-PPAR-α-LBD plasmid, a GAL4-luciferase vector, and a β-galactosidase vector for 6 hours, treated with amodiaquine for 20 hours, and then grown in a 5% CO2 incubator.
On the technique in general: A reporter such as luciferase makes a cellular process visible.

Test [2] deals with high fat-induced obesity mice. Nature of the test: Intraperitoneal insulin tolerance test (IPITT) in high fat-induced obesity mice. Format: in vivo, mouse. The following applies: for blood glucose concentration after 2 hours vs fasting blood glucose (IPITT): HFD with simultaneous administration, 0.5 U/kg insulin i.p., FIG. 7B; for time of lowest blood glucose level after insulin (IPITT): administration after long-term HFD-induced obesity, FIG. 7C. The text has this: For measurement of the blood glucose concentration, an intraperitoneal insulin tolerance test (IPITT) was used.

For test [3], the target named is T2, PPAR-α (Homo sapiens, UniProt Q07869).
T2 construct: expressed in transfected cells; host or cells: BE(2)C cells
T2 sequence (Q07869 239-466 limits assumed): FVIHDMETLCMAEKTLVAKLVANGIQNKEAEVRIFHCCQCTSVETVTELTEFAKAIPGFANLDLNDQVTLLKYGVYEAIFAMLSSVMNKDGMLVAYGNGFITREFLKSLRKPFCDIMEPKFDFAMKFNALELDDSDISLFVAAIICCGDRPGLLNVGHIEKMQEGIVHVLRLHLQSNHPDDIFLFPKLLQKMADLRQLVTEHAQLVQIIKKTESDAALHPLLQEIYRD
In words: PPAR-α activation, GAL4-PPAR-α-LBD luciferase reporter in BE(2)C cells. Format: cell-based. The following applies: 20 h treatment, up to 50 μM, FIGS. 1C, 1D. The protocol: as §1, §2

Test [4] deals with high fat-induced obesity mice. Nature of the test: Fatty liver histology (hematoxylin & eosin) in high fat-induced obesity mice. Particulars: HFD mice, 14 weeks and 22 weeks; FIGS. 8A and 8B. Format: in vivo, mouse.
Source text: Among the experimental animals designed in Example 5, mice in the high fat-induced obesity mouse group fed a high fat diet for 14 weeks with drug administration and high fat-induced obesity mice fed a high fat diet for 7 weeks with drug administration after obesity was induced by a high fat diet for 15 weeks were sacrificed by cervical spine dislocation, fixed on a dissection stand, and subjected to abdominal dissection with a scalpel to extract the liver. The extracted liver tissue was fixed in a 10% formalin solution to prevent contractile deformation. After 24 hours, the fixed tissue was washed with running water, and then general tissue dehydration, clearing, and penetration were performed thereon using an automatic tissue processor (6460B, Sakura, Japan) for 14 hours, and manufacture of paraffin blocks and cooling were performed using an automated embedding device (Tissue-Tex, Japan). The manufactured paraffin blocks were continuously sliced to a thickness of 4 m to 5 m in a vertical direction of the tissue using a rotary microtome 2040 (Japan), and attached to slides after processing using a floating hot water tank and a slide warming table. […]
Test [5] deals with high fat-induced obesity mice. In words: Oral glucose tolerance test (OGTT) in high fat-induced obesity mice. Format: in vivo, mouse. Particulars: HFD mice, 2 g/kg glucose oral; HFD control 180.5 mg/dl; FIG. 7A. The method, then: After fasting for 16 hours, 2 g/kg of glucose was orally administered to each of the control and experimental group animals, and a blood glucose concentration was measured every 30 minutes for 2 hours. For measurement of the blood glucose concentration, an oral glucose tolerance test (OGTT) was used.

Test [6] relates to high fat-induced obesity mice. In words: Body weight of high fat-induced obesity mice. Format: in vivo, mouse. The following applies: amodiaquine 20 mg/kg. The protocol:
To measure a decrease in body weight of mice by amodiaquine, 7-week-old male C57BL/6 mice (Charles River Laboratories, Tokyo, Japan) were purchased and raised under certain conditions (temperature: 22±2° C., relative humidity: 55±10%, and light/dark cycle: 12 hours). The mice were grouped into 7 individuals per group, freely fed water and diets in a cage, and then acclimated for 1 week before an experiment.
An average body weight was calculated by dividing the sum of weights of 7 mice per group by the number of mice.

Test [7] relates to C2C12 myotube cells. Nature of the test: Glucose uptake ([3H]2-DOG) in C2C12 myotube cells. Format: cell-based, mouse. The following applies: 10 μM or 30 μM, 24 h; compared with 50 μM rosiglitazone; FIG. 2. The method, then: The phosphorylation of insulin receptors occurs due to signal transduction by insulin in muscle, adipose, liver cells, and the like, and accordingly, when various proteins located downstream are phosphorylated, glucose uptake increases, resulting in reduced blood glucose. Thus, a glucose uptake evaluation experiment was carried out to identify whether amodiaquine is effective for diabetes. C2C12 myoblasts, which are muscle cells, were cultured in DMEM containing 10% […]. When the cell density reached about 80% to about 90%, the medium was replaced with fresh 2% horse serum-containing DMEM, and cell differentiation of the C2C12 myoblasts into myotubes was induced to completely differentiate the cells, and then an experiment was carried out. […] Washing was repeated three times every twenty minutes. Subsequently, 1 ml of KRP buffer was injected, a solution (0.2 mM, 0.2 μCi) prepared by dissolving unlabeled 2-DOG and [^3H]2-DOG (Amersham Pharmacia) in KRP buffer was added to the resulting cells at 37° C. to allow treatment for exactly 10 minutes.

The test system of test [8] is ACOX, CPT-1, and mCAD genes. Nature of the test: Expression of PPAR-α target genes in liver, muscle and adipose tissues (real-time PCR). Format: in vivo, mouse. The following applies: muscle, adipose tissues, HFD 14 weeks, FIGS. 9A-9C. (Quantitative PCR measures a nucleic acid by following its amplification.)
Source text: Among the experimental animals designed in Example 5, mice of the high fat-induced obesity mouse groups fed a high fat diet for 14 weeks were sacrificed by cervical spine dislocation, fixed on a dissection stand, and then subjected to dissection with a scalpel to extract liver, muscle, and adipose tissues, and primer base sequences of (β-actin, ACOX, CPT-1, and mCAD are as follows:
After each tissue was disrupted using a grinding instrument, RNA was extracted using TRIzol, and cDNA was synthesized using reverse transcription polymerase chain reaction (RT PCR). […] The ACOX, CPT-1, and mCAD genes were calibrated with β-actin, thereby obtaining resultant values.
Test [9] relates to KKAy mice. In words: Intraperitoneal glucose tolerance test (IPGTT) in KKAy mice. The following applies: 18 mg/kg oral daily for 6 weeks, 2 g/kg glucose i.p., control 293.2 mg/dl. Format: in vivo, mouse. The method, then:
(§3) 5-week-old KKAy purchased from Clea Japan was preliminarily raised for one week and then divided into two groups (5 individuals per group). The first group was administered PBS and set as a negative control, and the second group was orally administered amodiaquine at a concentration of 18 mg/kg daily for 6 weeks. […] For measurement of the blood glucose concentration, an intraperitoneal glucose tolerance test (IPGTT) was used.

Test [10] relates to KKAy mice. In words: Glycated hemoglobin (HbA1C) in KKAy mice (amodiaquine). Format: in vivo, mouse. The following applies: 18 mg/kg oral daily for 6 weeks, FIG. 4. The protocol: As in Example 3, the first group of experimental animals was administered PBS and set as a control, and the second group was orally administered amodiaquine at a concentration of 18 mg/kg using a 1 ml syringe daily for 6 weeks.

Test [11] has as its system KKAy mice. Nature of the test: Fasting blood glucose in KKAy mice (amodiaquine). Format: in vivo, mouse. Particulars: 18 mg/kg oral daily for 6 weeks, control 132.4 mg/dl. The method, then: as §3
The test system of test [12] is high fat-induced obesity mice. Nature of the test: Heat production, 4° C. cold test in high fat-induced obesity mice. Format: in vivo, mouse. The following applies: HFD 14 weeks, up to 6 hours at 4° C.; FIG. 6. The protocol:
To measure the heat production capability of mice fed a high fat diet for 14 weeks among the experimental animals designed in Example 5, a 4° C. cold test was performed (Spiegelman B. M. et al., Cell 92: 829-839, 1998). Hereinafter, the measurement method will be described in detail. A body temperature of mice in the high fat-induced obesity mouse group was measured before being exposed to 4° C., and recorded as an experiment start measurement temperature, and then the mice were exposed in a 4° C. room for up to 6 hours, followed by measurement of body temperature every hour. The body temperature was measured using a rectal thermometer for a mouse (Testo 925, Germany). A heat production measurement value indicated a temperature measured every hour.

SMILES strings stand for the structures.

`Cc1cccc(Nc2cc(Cl)nc(SCC(=O)O)n2)c1C` [WY-14,643]: the “PPAR-γ activity (luciferase expression)” value in test [1] is on record as “did not exhibit PPAR-γ activity”. Besides, the “blood glucose concentration after 2 hours vs fasting blood glucose (IPITT)” value in [2] is on record as “maintained at a lower level than the fasting blood glucose concentration”.
Turning to `CCN(CC)Cc1cc(Nc2ccnc3cc(Cl)ccc23)ccc1O` [amodiaquine], the “PPAR-α activity (luciferase expression)” value in [3] was “high PPAR-α activity in a concentration-dependent manner”. In addition, in [4], the “liver appearance (fat accumulation, H&E)” value is given as “almost the same appearance as that of normal mice”. Also, the “blood glucose concentration 2 hours after glucose loading (OGTT)” value in [5] was found to be 139.1 mg/dL. Also, in test [1], the “PPAR-γ activity (luciferase expression)” value is “higher PPAR-γ activity in a concentration-dependent manner than that of the positive control treated with rosiglitazone”. For the same compound, the “body weight vs high fat-induced obesity mice” value in test [6] (HFD with substance administration for 14 weeks, FIG. 5A) is reported as “significantly lower than that of the high fat-induced obesity mice”. The “body weight vs high fat-induced obesity mice” value in test [6] (substance administration for 7 weeks after obesity induced by HFD for 15 weeks, rosiglitazone 50 mg/kg, FIG. 5C) is listed as “significant decrease in body weight”. In addition, the glucose uptake entry in test [7] is “further increased as compared to that in the group treated with rosiglitazone”. Besides, the “increase in expression amounts of the ACOX, CPT-1, and mCAD genes as compared to the control” value in test [8] was at least 215 fold. In addition, the “blood glucose concentration 2 hours after glucose loading (IPGTT)” value in [9] was 207 mg/dL. For the same compound, the “glycated hemoglobin production as compared to control mice” value in [10] was “approximately 69%”. The “fasting blood glucose concentration” value in test [11] was 100.2 mg/dL. Moreover, in test [2], the “blood glucose concentration after 2 hours vs fasting blood glucose (IPITT)” value is given as “maintained at a lower level than the fasting blood glucose concentration” and the “time of lowest blood glucose level after insulin (IPITT)” value turned out to be 30 min. Moreover, the “body temperature on exposure to 4° C. (heat production)” value in test [12] was “smaller decrease in body temperature than that of the high fat-induced obesity mice”.
Consider `CN(CCOc1ccc(CC2SC(=O)NC2=O)cc1)c1ccccn1` (centres unmarked) [rosiglitazone], for which the “time of lowest blood glucose level after insulin (IPITT)” value in test [2] was 60 min.

The values are drawn from patent publication US10792280B2, “Pharmaceutical composition comprising amodiaquine and anti-diabetes drug as effective ingredient for prevention or treatment of diabetes” (NOVMETAPHARMA CO., LTD., priority 2016, dated 2020).
